Laboratory results from US20110159515A1, “COMPOSITIONS AND METHODS FOR THE RAPID GROWTH AND DETECTION OF MICROORGANISMS” (SOLUS SCIENTIFIC SOLUTIONS LIMITED, priority 2008, published 2011).

Tested on: S. aberdeen
Test: Direct binding Salmonella assay (chemiluminescence immunosorbent)
Settings: for signal, direct binding Salmonella assay: conjugate 1:100; for signal, release and detection of core oligosaccharide: 0.1% SDS

CCCCCCCCCCCCOS(=O)(=O)[O-].[Na+] [SDS, sodium dodecyl sulphate]
signal, direct binding Salmonella assay (0% SDS, 2.5 × 10^4 S. aberdeen, black and white plates): 1,617 ± 250
signal, direct binding Salmonella assay (0% SDS, 5 × 10^3 S. aberdeen, black and white plates): 575 ± 120
signal, direct binding Salmonella assay (0% SDS, 5 × 10^4 S. aberdeen, black and white plates): 2,027 ± 206
signal, direct binding Salmonella assay (0% SDS, 10^4 S. aberdeen, black and white plates): 1,102 ± 357
signal, direct binding Salmonella assay (0% SDS, 10^5 S. aberdeen, black and white plates): 3,131 ± 121
signal, direct binding Salmonella assay (0% SDS, 10^6 S. aberdeen, black and white plates): 24,566 ± 4,287
signal, direct binding Salmonella assay (0% SDS, Peptone, black and white plates): 643 ± 54
signal, direct binding Salmonella assay (0.1% (w/v) SDS, 2.5 × 10^4 S. aberdeen, white plate, Lucy I): 28,622 ± 2,162
signal, direct binding Salmonella assay (0.1% (w/v) SDS, 5 × 10^3 S. aberdeen, white plate, Lucy I): 8,536 ± 1,520
signal, direct binding Salmonella assay (0.1% (w/v) SDS, 5 × 10^4 S. aberdeen, white plate, Lucy I): 51,909 ± 3,036
signal, direct binding Salmonella assay (0.1% (w/v) SDS, 10^4 S. aberdeen, white plate, Lucy I): 11,324 ± 2,770
signal, direct binding Salmonella assay (0.1% (w/v) SDS, 10^5 S. aberdeen, white plate, Lucy I): 143,796 ± 4,297
signal, direct binding Salmonella assay (0.1% (w/v) SDS, 10^6 S. aberdeen, white plate, Lucy I): 356,444 ± 102,877
signal, direct binding Salmonella assay (0.1% (w/v) SDS, Peptone, white plate, Lucy I): 4,288 ± 1.653
signal, direct binding Salmonella assay (0.1% SDS (first block), 2.5 × 10^4 S. aberdeen, black and white plates): 1,277 ± 211
signal, direct binding Salmonella assay (0.1% SDS (first block), 5 × 10^3 S. aberdeen, black and white plates): 591 ± 1
signal, direct binding Salmonella assay (0.1% SDS (first block), 5 × 10^4 S. aberdeen, black and white plates): 1,297 ± 4
signal, direct binding Salmonella assay (0.1% SDS (first block), 10^4 S. aberdeen, black and white plates): 1,662 ± 531
signal, direct binding Salmonella assay (0.1% SDS (first block), 10^5 S. aberdeen, black and white plates): 2,386 ± 263
signal, direct binding Salmonella assay (0.1% SDS (first block), 10^6 S. aberdeen, black and white plates): 16,738 ± 1051
signal, direct binding Salmonella assay (0.1% SDS (first block), Peptone, black and white plates): 643 ± 54
signal, direct binding Salmonella assay (0.1% SDS (second block), 2.5 × 10^4 S. aberdeen, black and white plates): 1,442 ± 28^
signal, direct binding Salmonella assay (0.1% SDS (second block), 5 × 10^3 S. aberdeen, black and white plates): 678 ± 40
signal, direct binding Salmonella assay (0.1% SDS (second block), 5 × 10^4 S. aberdeen, black and white plates): 2321 ± 437
signal, direct binding Salmonella assay (0.1% SDS (second block), 10^4 S. aberdeen, black and white plates): 930 ± 21
signal, direct binding Salmonella assay (0.1% SDS (second block), 10^5 S. aberdeen, black and white plates): 4,654 ± 636
signal, direct binding Salmonella assay (0.1% SDS (second block), 10^6 S. aberdeen, black and white plates): 28,169 ± 1516
signal, direct binding Salmonella assay (0.1% SDS (second block), Peptone, black and white plates): 503 ± 76
signal, release and detection of core oligosaccharide (10^1 bacteria (species not given)): 10248 relative light units
signal, release and detection of core oligosaccharide (10^2 bacteria (species not given)): 9525 relative light units
signal, release and detection of core oligosaccharide (10^3 bacteria (species not given)): 12375 relative light units
signal, release and detection of core oligosaccharide (10^4 bacteria (species not given)): 65960 relative light units
signal, release and detection of core oligosaccharide (10^5 bacteria (species not given)): 717259 relative light units
signal, release and detection of core oligosaccharide (10^6 bacteria (species not given)): 895811 relative light units
signal, direct binding Salmonella assay (0.2% (w/v) SDS, 2.5 × 10^4 S. aberdeen, white plate, Lucy I): 27,339 ± 2,635
signal, direct binding Salmonella assay (0.2% (w/v) SDS, 5 × 10^3 S. aberdeen, white plate, Lucy I): 10,334 ± 2,264
signal, direct binding Salmonella assay (0.2% (w/v) SDS, 5 × 10^4 S. aberdeen, white plate, Lucy I): 75,900 ± 5,798
signal, direct binding Salmonella assay (0.2% (w/v) SDS, 10^4 S. aberdeen, white plate, Lucy I): 11,098 ± 828^
signal, direct binding Salmonella assay (0.2% (w/v) SDS, 10^5 S. aberdeen, white plate, Lucy I): 112,096 ± 3,841
signal, direct binding Salmonella assay (0.2% (w/v) SDS, 10^6 S. aberdeen, white plate, Lucy I): 365,496 ± 12,729
signal, direct binding Salmonella assay (0.2% (w/v) SDS, Peptone, white plate, Lucy I): 3,904 ± 59^
signal, direct binding Salmonella assay (0.3% SDS, 2.5 × 10^4 S. aberdeen, white plate, Lucy I): 38,450 ± 1,411
signal, direct binding Salmonella assay (0.3% SDS, 5 × 10^3 S. aberdeen, white plate, Lucy I): 14,313 ± 2,881
signal, direct binding Salmonella assay (0.3% SDS, 5 × 10^4 S. aberdeen, white plate, Lucy I): 123,881 ± 15,994
signal, direct binding Salmonella assay (0.3% SDS, 10^4 S. aberdeen, white plate, Lucy I): 14,314 ± 617^
signal, direct binding Salmonella assay (0.3% SDS, 10^5 S. aberdeen, white plate, Lucy I): 209,913 ± 40,150
signal, direct binding Salmonella assay (0.3% SDS, 10^6 S. aberdeen, white plate, Lucy I): 352,714 ± 88,260
signal, direct binding Salmonella assay (0.3% SDS, Peptone, white plate, Lucy I): 3,026 ± 473
signal, direct binding Salmonella assay (0.4% SDS, 2.5 × 10^4 S. aberdeen, white plate, Lucy I): 59,399 ± 13,550
signal, direct binding Salmonella assay (0.4% SDS, 5 × 10^3 S. aberdeen, white plate, Lucy I): 25,175 ± 5,025
signal, direct binding Salmonella assay (0.4% SDS, 5 × 10^4 S. aberdeen, white plate, Lucy I): 120,481 ± 16,389
signal, direct binding Salmonella assay (0.4% SDS, 10^4 S. aberdeen, white plate, Lucy I): 29,127 ± 2,516
signal, direct binding Salmonella assay (0.4% SDS, 10^5 S. aberdeen, white plate, Lucy I): 199,287 ± 67,462
signal, direct binding Salmonella assay (0.4% SDS, 10^6 S. aberdeen, white plate, Lucy I): 398,979 ± 44,871
signal, direct binding Salmonella assay (0.4% SDS, Peptone, white plate, Lucy I): 3,499 ± 569
signal, direct binding Salmonella assay (0.5% (w/v) SDS (first block), 2.5 × 10^4 S. aberdeen, black and white plates): 1094 ± 156
signal, direct binding Salmonella assay (0.5% (w/v) SDS (first block), 5 × 10^3 S. aberdeen, black and white plates): 623 ± 9
signal, direct binding Salmonella assay (0.5% (w/v) SDS (first block), 5 × 10^4 S. aberdeen, black and white plates): 1,826 ± 166
